Laboratory results taken from US20070043512A1, “Therapeutic and prophylactic compositions and uses therefor” (priority 2003, published 2007).
Where “and” joins values, the source holds several entries; their conditions need not be identical. Equal values may be shown once. Entries after “also recorded” stand apart in the source; their conditions may differ.

Experiments:
Assay type in all cases: cell-based, human
[1] = test system: aP2 gene expression; assay: Real-time PCR, aP2 gene expression in NHBE cells; conditions: for Effect on aP2 expression: NHBE (HBE) cells, stimuli for 18 h, real-time PCR (FIG. 2); for Fold-Change aP2 gene expression (real-time PCR): NHBE cells, 10 ng/ml cytokine, 18 h, vs unstimulated, mean of two RNA sets used in arrays
Description: (§1) When NHBE cells were 80% confluent and between passage 7 and 8, they were washed in PBS (Gibco) and starved for 24 h in Clonetics bronchial epithelial cell basal medium (BEBM) containing 0.1% w/v BSA.
(§2) Total RNA was isolated from cells using the RNeasy Total RNA Isolation Kit (Qiagen, Chatswort, Calif.) or Trizol (Invitrogen, CA) as per the manufacturer's instructions.
(§3) cDNA was made using Reverse-IT RTase Blend Kit (ABgene, UK) or Avian myeloblastosis virus Reverse Transcriptase (Promega, Madison, Wis.) according to manufacturer's instructions. Oligo-p(dt)15 primer (Roche Molecular Biochemicals) was used at 1 μM in both cDNA preparation methods. Following cDNA synthesis, 1 μl of cDNA template was used for each PCR. Real-time PCR was conducted using Light Cycler-FastStart DNA Master SYBR Green I kit (Roche Molecular Biochemicals) according to manufacturer's specifications using 2 mM MgCl2 and 1 μM primers. Human aP2 forward and reverse primers and FABP-5 forward and primers were designed from Genbank sequences using Primer3 software (Rozen and Skaletsky, Methods Mol. Biol. 132: 365-386, 2000):
(§4) After an initial denaturation for 10 min at 95° C., the samples were run for 40 cycles at 95° C. (15 s), 63° C. (5 s), and 72° C. (10 s). At the end of each cycle, the fluorescence was measured in a single step in channel F1. After the 40th cycle, the specimens were heated to 95° C. and cooled to 65° C. for 15 s. All heating and cooling steps were performed with a slope of 20° C./sec. The temperature was then raised to 95° C. at a rate of 0.1° C./sec and fluorescence was measured continuously (channel F1) to obtain a melting curve for the PCR products. Each gene was normalized to a housekeeping gene GAPDH before fold change was calculated (using crossing point values) to account for variations between different samples. The aP2 PCR product was confirmed by size on a 2% w/v agarose gel and by sequencing at Sydney University Prince Alfred Macromolecular Analysis Centre, NSW, Australia.
Using the same RNA samples as were used for the microarray experiments, aP2 gene expression was analysed using real-time PCR. […] Data are the mean from the two sets of RNA that were used in the array experiments.

[2] = test system: aP2 gene expression; assay: Real-time PCR, aP2 gene expression in NHBE cells; conditions: NHBE (HBE) cells, subsequent experiment
[3] = test system: aP2 expression; assay: aP2 expression in THP-1 cells; conditions: 10 ng/ml IL-4, 10 ng/ml IL-13 or 28 ng/ml IFN-γ (FIG. 6)
Description: FIG. 6 is a graphical representation showing aP2 expression in THP-1 cells stimulated with (A) 10 ng/ml IL-4, 10 ng/ml IL-13 or 28 ng/ml IFN-γ or (B) 50 ng/ml PMA. The data are mean±SEM from three independent experiments.
To address this issue, the effect of IL-4, IL-13 and IFN-γ on expression of aP2 in the human monocyte cell line THP-1 was examined.

[4] = test system: FABP-5 gene expression; assay: Real-time PCR, FABP-5 (mal1) gene expression in NHBE cells; conditions: for Effect on FABP-5 (mal1) expression, real-time PCR: NHBE (HBE) cells, 10 ng/ml (FIG. 3)
Description: as §1, §2, §3, §4

[5] = test system: FABP-5 gene expression; assay: Microarray, FABP-5 gene expression in synovial fibroblasts (RA/OA synoviocytes); parameters: key: I, increased; D, decreased; NC, no change; conditions: 10 ng/ml, 4 h
[6] = test system: aP2 gene expression; assay: Affymetrix U95A microarray, aP2 gene expression in stimulated NHBE cells; parameters: key to Regulation of aP2 gene expression: I, increased; D, decreased; NC, no change; conditions: 18 h; for Fold-Change aP2 gene expression: NHBE cells, 10 ng/ml cytokine, vs unstimulated cells, mean of both micro-array experiments; for Fold change aP2 gene expression / Regulation of aP2 gene expression: NHBE, 10 ng/ml, vs ctrl, individual array comparisons
Description: NHBE primary cell lines were purchased from Clonetics (San Diego, Calif.). Both NHBE cell lines, lot 8F1142 and 7F1482, were isolated […]. NHBE cells were maintained in Clonetics bronchial epithelial growth media (BEGM), which included supplements of 52 μg/ml bovine pituitary extract, 0.5 μg/ml hydrocortisone, 0.5 μg/ml human recombinant epidermal growth factor, 0.5 μg/ml epinephrine, 10 μg/ml transferrin, 5 μg/ml insulin, 0.1 μg/ml retinoic acid, 6.5 μg/ml triiodothryonine, 50 μg/ml gentamycin and 50 μg/ml amphotericin B (Clonetics). Medium was replaced every three to four days. When confluent, cells were subcultured at a ratio of 1:3.
as §1
A preliminary time course experiment in IL-4 and IL-13 stimulated NHBE identified 18 h as a time point associated with strong gene regulation and this time point was selected for subsequent analysis. Gene expression in unstimulated- and IL-4- and IL-13-stimulated NHBE was measured using Affymetrix U95A Gene Chips. The experiment was performed twice, using two independent NHBE lines. One novel finding was increased expression of the adipocyte gene aP2 in the cytokine stimulated NHBE cells (Table 3).
NHBE cells were stimulated with 10 ng/ml IL-4 or 10 ng/ml IL-13. After 18 h, gene expression in these cells, and in unstimulated NHBE cells, was analysed using Affymetrix U95A chips. The fold-change in gene expression following cytokine stimulation compared to unstimulated NHBE cells is shown. Data are the mean of both micro-array experiments.
(§5) Depending on the quantity of RNA available, cRNA was prepared according to the GeneChip Expression Analysis Technical Manual (Array experiment 1; Affymetrix, Santa Clara, Calif.) or the cRNA methods published in Baugh et al., Nucleic Acids Res. 29(5): E29, 2001 (Array experiment 2). The GeneChip Expression Analysis protocol involved cDNA synthesis from 20 μg of total RNA using a poly(T) primer containing a T7 RNA polymerase promoter (Geneworks, Australia):
(§6) cRNA was transcribed from cDNA and biotinylated using the BioArray High Yield RNA Transcript Labeling Kit (Enzo Diagnostics, Farmingdale, N.Y.). Twenty micrograms of cRNA was fragmented by heating at 94° C. for 35 min in fragmentation buffer (40 mM Tris acetate (pH 8.1), 125 mM KOAc, 30 mM MgOAc) prior to hybridization. For the small-scale cRNA amplification (Baugh et al., 2001, supra), cDNA synthesis volumes were different from the GeneChip Expression Analysis Technical Manual but reaction component concentrations, incubation times and temperatures were conserved. Five hundred nanograms of RNA was used and 15 μg cRNA was fragmented prior to hybridization.
(§7) Hybridization cocktails were then made by adding fragmented cRNA, control cRNAs, grid alignment oligonucleotides and blocking reagents. These mixtures were hybridised overnight (˜16 h) to individual Test3 (Affymetrix) arrays at 45° C., under constant rotation at 60 rpm. Washing and staining of the hybridized arrays were performed by an Affymetrix Fluidics Station, according to the manufacturer's protocols. Fluorescent signals were measured on the arrays using the Agilent GeneArray Laser Scanner and gene transcript levels were determined and scaled to 150 using algorithms in MicroArray Analysis Suite Software 5.0 (Affymetrix). For each array experiment, the hybridization cocktails met the test three criteria (background less then 150, GAPDH and β-actin 3′/5′ ratios less then three and similar scaling factors between samples), and were used to probe Affymetrix U95A GeneChips. Relative mRNA expression levels on the IL-4 and IL-13 stimulated NHBE arrays were expressed as plus or minus fold changes when compared to the control NHBE array.
Regulation of aP2 gene expression was examined for all comparison arrays in which aP2 expression was detected. […]

[7] = test system: FABP-5 gene expression; assay: Microarray, FABP-5 gene expression in NHBE cells; parameters: key to Regulation of FABP-5 gene expression: I, increased; D, decreased; NC, no change; conditions: for Effect on FABP-5 (mal1) expression, microarray: NHBE (HBE) cells; for Fold change FABP-5 gene expression / Regulation of FABP-5 gene expression: NHBE, 10 ng/ml, 18 h, vs ctrl
Description: as §1, §5, §6, §7
Positive/negative fold change indicates greater/lesser gene expression in the first-named array, respectively. I, increased; D, decreased; NC, no change. Where the same type of array comparison is listed more than once, this represents repeat experiments.

[8] = test system: aP2 protein expression; assay: Immunofluorescent staining of aP2 protein in NHBE cells; conditions: NHBE (HBE) cells, 10 ng/ml, 24 h
Description: NHBE cells were grown in chamber slides and treated with culture medium alone, or with medium supplemented with 10 ng/ml IL-4 or 10 ng/ml IL-13. After 24 h, the culture medium was removed and the cells were air-dried for 30 min. The cells were fixed in 1% v/v paraformaldehyde for 20 min at room temperature. The slides were washed in PBS and the cells were permeabilised in 70% v/v ethanol at −20° C. for 20 min. The cells were washed in PBS-Triton for 5 min, and then blocked for 60 min with 10% v/v normal goat serum in 2% v/v BSA/Tris-buffered saline (TBS). The normal goat serum was removed and […] (1:1000 dilution in 2% BSA/TBS) or rabbit isotype control (1:4 dilution; Zymed) was added. The slides were incubated overnight at room temperature, washed 3×5 min in TBS-Triton (TBS-T), and incubated with secondary Ab (TRITC-conjugated anti-rabbit Ig; dilution 1:100) for 1 h at room temperature. The slides were washed in TBS-T for 5 min, and cover-slipped after the addition of Vectashield. The slides were examined on a confocal microscope.

[9] = test system: FABP-5 gene expression; assay: Microarray, FABP-5 gene expression in bronchial smooth muscle cells (BSMC); parameters: key to Regulation of FABP-5 gene expression: I, increased; D, decreased; NC, no change; conditions: 10 ng/ml, 18 h, vs ctrl

CCCCCCCCCCCCCC(=O)O[C@@H]1[C@@H](C)[C@@]2(O)[C@@H](C=C(CO)C[C@]3(O)C(=O)C(C)=C[C@@H]23)[C@@H]2C(C)(C)[C@]12OC(C)=O [PMA, phorbol myristate acetate, reference compound]
Effect on aP2 expression [1]: slight down-regulation; also recorded: slight downregulation

Cc1cccc(Nc2cc(Cl)nc(SCC(=O)O)n2)c1C [WY14643]
Effect on aP2 expression [2]: little or no effect

IFN-γ: prototypic type 1 cytokine, 28 ng/ml
Effect on aP2 expression [3]: reduced expression
Effect on mal1 expression ([4]; HBE cells, summary statement, method not stated): down-regulated
Effect on aP2 expression [1]: strongly down-regulated
Effect on aP2 expression ([1]; listed as IFNg): down-regulated
Effect on aP2 expression ([1]; listed as IFNγ): strongly downregulated

IL-1: cytokine Interleukin (IL)-1β used as stimulus, 10 ng/ml
Regulation of FABP-5 gene expression ([5]; RA synoviocytes, vs RA ctrl): NC
Effect on aP2 expression [1]: no effect

IL-4: allergy-associated type-2 cytokine used as stimulus, 10 ng/ml (BD)
Fold-Change aP2 gene expression [6]: 33.4
Fold change aP2 gene expression [6]: 48.5 and 18.4
Regulation of aP2 gene expression [6]: I
Effect on FABP-5 (mal1) expression, microarray [7]: mildly up-regulated
Fold change FABP-5 gene expression [7]: 1.4 and 2
Regulation of FABP-5 gene expression [7]: I
Effect on aP2 expression [3]: stimulated aP2 expression
Intensity of aP2 staining vs unstimulated cells [8]: considerably greater
Nuclear localisation of aP2 [8]: significant nuclear localisation
Regulation of FABP-5 gene expression ([5]; RA synoviocytes, vs RA ctrl): NC
Effect on FABP-5 (mal1) expression, real-time PCR [4]: up-regulated; also recorded: upregulated
Fold-Change aP2 gene expression (real-time PCR) [1]: 65

IL-6: cytokine stimulus, 5 ng/ml (BD)
Effect on aP2 expression [1]: no effect

IL-13: allergy-associated type-2 cytokine used as stimulus, 10 ng/ml (BD)
Fold-Change aP2 gene expression [6]: 31.8
Fold change aP2 gene expression [6]: 45.3 and 18.4
Regulation of aP2 gene expression [6]: I
Effect on FABP-5 (mal1) expression, microarray [7]: mildly up-regulated
Fold change FABP-5 gene expression [7]: 1.5
Regulation of FABP-5 gene expression [7]: I and NC
Effect on aP2 expression [3]: stimulated aP2 expression
Intensity of aP2 staining vs unstimulated cells [8]: considerably greater
Nuclear localisation of aP2 [8]: significant nuclear localisation
Fold change FABP-5 gene expression [9]: 1.7
Regulation of FABP-5 gene expression [9]: NC and I
Effect on FABP-5 (mal1) expression, real-time PCR [4]: up-regulated; also recorded: upregulated
Fold-Change aP2 gene expression (real-time PCR) [1]: 56

TNFα
Regulation of FABP-5 gene expression ([5]; OA synoviocytes, vs OA ctrl): NC
Regulation of FABP-5 gene expression ([5]; RA synoviocytes, vs RA ctrl): NC
Effect on aP2 expression [1]: no effect

B1: IL-10: cytokine stimulus, 10 ng/ml (BD) (protein, UniProt P22301 19-178, looked up)
Interleukin-10: SPGQGTQSENSCTHFPGNLPNMLRDLRDAFSRVKTFFQMKDQLDNLLLKESLLEDFKGYLGCQALSEMIQFYLEEVMPQAENQDPDIKAHVNSLGENLKTLRLRLRRCHRFLPCENKSKAVEQVKNAFNKLQEKGIYKAMSEFDIFINYIEAYMTMKIRN
Effect on aP2 expression [1]: no effect
